According to patent US9084420B2, “Amide derivative, pest control agent containing the amide derivative, and pest controlling method” (Mitsui Chemicals Agro, Inc., priority 2008, dated 2015):

Columns and labels:
Type in all cases: in vivo
[1] = system: Spodoptera litura; experiment: Pesticidal test of penetration migration against Spodoptera litura (radish seedling root immersion); conditions: 72 h, radish seedling root immersed 2 days, leaf fed to 2-stage larvae, 25° C., after 3 days, read-out: pesticidal rate
Experimental: Pesticidal Test of Penetration Migration against Spodoptera litura A root portion of a radish seedling was immersed for 2 days in a chemical solution in which a test compound had been diluted at a predetermined concentration, then the leaf was cut and put into a 7 cm polyethylene cup having a filter paper laid on the bottom thereof, and 2-stage larvae of Spodoptera litura were released. They were left to stand in a thermostatic chamber at 25° C., and the numbers of the living pests and the dead pests were examined after 3 days. The test was carried out with five larvae per group in two replicates.

[2] = system: Musca domestica; experiment: Pesticidal test against Musca domestica (petri dish residue); conditions: 24 h, acetone solution dried in petri dish, female adults, 25° C., after 1 day, read-out: pesticidal rate
Experimental: Pesticidal Test Against Musca domestica
1 ml of an acetone solution in which a test compound had been diluted at a predetermined concentration was added dropwise to a petri dish having a diameter of 9 cm, and air-dried, and then the female adults of Musca domestica were released and the petri dish was capped. They were left to stand in a thermostatic chamber at 25° C., and the numbers of the living pests and the dead pests were examined after 1 day. The test was carried out with […] in two replicates.

[3] = system: Plutella xylostella; experiment: Pesticidal test against Plutella xylostella (cabbage leaf immersion); conditions: 144 h, 3-stage larvae on treated cabbage leaf, 25° C., after 6 days, read-out: pesticidal rate
Experimental: (§1) Pesticidal Test Against Plutella xylostella A piece of a cabbage leaf was immersed for 30 seconds in a chemical solution in which a test compound had been diluted at a predetermined concentration, and air-dried, and then put into a 7 cm polyethylene cup having a filter paper laid on the bottom thereof, and 3-stage larvae of Plutella xylostella were released. They were left to stand in a thermostatic chamber at 25° C., and the numbers of the living pests and the dead pests were examined after 6 days. The test was carried out with five larvae per group in two replicates.

[4] = system: Spodoptera litura; experiment: Pesticidal test against Spodoptera litura (cabbage leaf immersion); conditions: 144 h, 2-stage larvae on treated cabbage leaf, 25° C., after 6 days, read-out: pesticidal rate
Experimental: as §1, with “Spodoptera litura” for “Plutella xylostella”, “2-stage” for “3-stage”

N#Cc1ccc(C(=O)N(CCC(N)=O)c2cccc(C(=O)Nc3c(Br)cc(C(F)(C(F)(F)F)C(F)(F)F)cc3C(F)(F)F)c2F)cc1 [1-136, 3-(N-(3-amino-3-oxopropyl)-4-cyanobenzamide)-N-(2-bromo-4-(perfluoropropan-2-yl)-6-(trifluoromethyl)phenyl)-2-fluorobenzamide]
≥ 70%: pest or weed control at 1 ppm [1] | pest or weed control at 1000 ppm [2] | pest or weed control at 100 ppm [3] | pest or weed control at 100 ppm [4]

CNC(=O)CCN(C(=O)c1ccccc1)c1cccc(C(=O)Nc2c(I)cc(C(F)(C(F)(F)F)C(F)(F)F)cc2C(F)(F)F)c1 [5-86, N-(3-(2-iodo-4-(perfluoropropan-2-yl)-6-(trifluoromethyl)phenylcarbamoyl)phenyl)-N-(3-(methylamino)-3-oxopropyl)benzamide]
≥ 70%: pest or weed control at 1 ppm [1] | pest or weed control at 1000 ppm [2] | pest or weed control at 100 ppm [3] | pest or weed control at 100 ppm [4]
